Assay results from ChEMBL document CHEMBL1201862, “PubChem BioAssay data set” (2004).
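Protocol summary: plate cells (96-well), add compound at 5 concentrations, incubate 48 h, interpolate endpoints linearly. The concentration for 50% growth inhibition is given as GI50.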 The source made the active and inactive calls. Cut-off read from the data, not from the text of the source: active = GI50 up to about 1.1 µM and inactive = higher.

What was measured:
Assay in all cases: NCI tumour cell line growth inhibition, 48 h
DMS-273 = test system: DMS-273
LXFL 529 = test system: LXFL 529
M19-MEL = test system: M19-MEL
KM-20L2 = test system: KM-20L2
DMS-114 = test system: DMS-114
DLD-1 = test system: DLD-1
XF498 = test system: XF498
HOP-18 = test system: HOP-18
RXF 631 = test system: RXF 631

SMILES	GI50 (DMS-273)	GI50 (LXFL 529)	GI50 (M19-MEL)	GI50 (KM-20L2)	GI50 (DMS-114)	GI50 (DLD-1)	GI50 (XF498)	GI50 (HOP-18)	GI50 (RXF 631)
O=c1[nH]c(=O)n(C2OC(CO)C(N(O)Cc3ccc(F)cc3)C2O)cc1Br (centres undefined)	> 100 µM (inactive)	> 100 µM (inactive)	> 100 µM (inactive)	> 100 µM (inactive)	> 100 µM (inactive)	> 100 µM (inactive)			
c1cnc2c3[nH]cc4[nH]c5ccccc5c4c-3nc2c1	72.9 µM (inactive)	68.1 µM (inactive)	> 100 µM (inactive)	76.2 µM (inactive)	> 100 µM (inactive)	37.8 µM (inactive)	> 100 µM (inactive)		
COC(=O)CC(=O)OC1C[C@@H]2CCC3C(C)(C)CCC[C@]3(C)C23CC[C@@]1(C)C3 (some centres undefined)			19.1 µM (inactive)	20 µM (inactive)	20.2 µM (inactive)	18.8 µM (inactive)	19 µM (inactive)		
O=C1c2ccccc2C(=O)N1C/C=N/NS(=O)(=O)c1ccc(Br)cc1	> 100 µM (inactive)	> 100 µM (inactive)	> 100 µM (inactive)	> 100 µM (inactive)	51.6 µM (inactive)	> 100 µM (inactive)	> 100 µM (inactive)	> 100 µM (inactive)	> 100 µM (inactive)
Fc1cccc(C2SCc3nc4ccccc4n32)c1 (centres undefined)	26.6 µM (inactive)	25.2 µM (inactive)	51.4 µM (inactive)		26.3 µM (inactive)	43.8 µM (inactive)			32.7 µM (inactive)
Cc1ccc2sc3cc(=O)cc(C)c-3nc2c1	43.3 µM (inactive)	28 µM (inactive)	16 µM (inactive)	> 100 µM (inactive)	19.6 µM (inactive)	76 µM (inactive)		> 100 µM (inactive)	54.1 µM (inactive)
Cc1cc(Cl)ccc1C1OC(=O)c2c1ccc1ccccc21 (centres undefined)	> 100 µM (inactive)	74.1 µM (inactive)	> 100 µM (inactive)	> 100 µM (inactive)		> 100 µM (inactive)	> 100 µM (inactive)		
COc1ccc(CN2CCC/C=C/CC(Cl)(Cl)C2=O)cc1	38.8 µM (inactive)	31.4 µM (inactive)	29.2 µM (inactive)	49.4 µM (inactive)	24.7 µM (inactive)	31.6 µM (inactive)		56.6 µM (inactive)	
C=CSCCC(N)C(=O)O (centres undefined)	> 100 µM (inactive)	> 100 µM (inactive)	> 100 µM (inactive)	> 100 µM (inactive)	> 100 µM (inactive)	> 100 µM (inactive)	> 100 µM (inactive)	> 100 µM (inactive)	> 100 µM (inactive)
Cc1cc(Cl)ccc1NC(=O)C(=O)Cc1nc2ccccc2o1	> 100 µM (inactive)	> 100 µM (inactive)	> 100 µM (inactive)	> 100 µM (inactive)	> 100 µM (inactive)	> 100 µM (inactive)	> 100 µM (inactive)	> 100 µM (inactive)	> 100 µM (inactive)
Cc1cccc(-c2nc3c(C(=O)NCCN(C)C)cccc3[nH]2)c1	0.411 µM (active)		1.67 µM (inactive)		1.24 µM (inactive)	0.407 µM (active)		0.605 µM (active)	0.394 µM (active)
COc1ccc2c(c1)OC[C@@H]1c3cc4c(cc3O[C@H]21)OCO4	> 100 µM (inactive)	> 100 µM (inactive)		> 100 µM (inactive)	> 100 µM (inactive)	> 100 µM (inactive)	> 100 µM (inactive)	37.2 µM (inactive)	
Nc1nc(S)nc(C(=O)Nc2nccs2)c1-c1ccccc1	> 100 µM (inactive)	> 100 µM (inactive)	> 100 µM (inactive)	> 100 µM (inactive)	> 100 µM (inactive)	> 100 µM (inactive)	> 100 µM (inactive)	> 100 µM (inactive)	
c1ccc(P(=C2c3ccccc3-c3ccccc32)(c2ccccc2)c2ccccc2)cc1	5.04 µM (inactive)	3.85 µM (inactive)	4.94 µM (inactive)	2.56 µM (inactive)	2.79 µM (inactive)	4.32 µM (inactive)		4.47 µM (inactive)	5.64 µM (inactive)
O=C1/C(=N\O)C2CCC1C2 (centres undefined)	> 100 µM (inactive)	> 100 µM (inactive)	> 100 µM (inactive)	> 100 µM (inactive)	> 100 µM (inactive)			> 100 µM (inactive)	
CN1NC(c2ccccc2)=C(C#N)C(=O)CC1c1ccccc1Cl (centres undefined)	> 100 µM (inactive)	> 100 µM (inactive)			> 100 µM (inactive)	61.4 µM (inactive)	> 100 µM (inactive)	67.3 µM (inactive)	> 100 µM (inactive)

SMILES	GI50 (DMS-273)	GI50 (LXFL 529)	GI50 (M19-MEL)	GI50 (KM-20L2)	GI50 (DMS-114)	GI50 (DLD-1)	GI50 (XF498)	GI50 (HOP-18)	GI50 (RXF 631)
CS(=O)(=O)OCCCOS(C)(=O)=O	> 100 µM (inactive)	> 100 µM (inactive)	> 100 µM (inactive)	> 100 µM (inactive)	> 100 µM (inactive)	> 100 µM (inactive)	> 100 µM (inactive)	> 100 µM (inactive)	
CC(=O)Nc1ccc(S(=O)(=O)N/N=C/c2cc(I)cc([N+](=O)[O-])c2O)cc1	62.4 µM (inactive)		66.4 µM (inactive)	> 100 µM (inactive)	50.8 µM (inactive)	> 100 µM (inactive)	24.1 µM (inactive)	27.7 µM (inactive)	> 100 µM (inactive)
CC1=CC(=O)C(=O)C2=C1OC1(C2)C(C)CCC2C3(C)CCC(O)C(C)(C)C3CCC21C (centres undefined)	24.9 µM (inactive)	15.5 µM (inactive)	18.4 µM (inactive)	18.7 µM (inactive)	14.9 µM (inactive)	20.1 µM (inactive)	18.2 µM (inactive)		
O=[N+]([O-])c1ccc(-c2noc(-c3ccc(Cl)cc3)c2C2=NCCN2)cc1		> 100 µM (inactive)	> 100 µM (inactive)	> 100 µM (inactive)		> 100 µM (inactive)	> 100 µM (inactive)	94.2 µM (inactive)	
CCOC(=O)c1sc2c(C(=O)OCC)n3ccccc3c2c1N	53.6 µM (inactive)		> 100 µM (inactive)	> 100 µM (inactive)	40.6 µM (inactive)	82.2 µM (inactive)	25.3 µM (inactive)	> 100 µM (inactive)	
CCCCC(=O)OC[n+]1ccc2c(C)c3[nH]c4ccc(OC)cc4c3c(C)c2c1	0.103 µM (active)	0.619 µM (active)	0.684 µM (active)	0.377 µM (active)	0.705 µM (active)	0.32 µM (active)			0.345 µM (active)
Cc1ccc(S(=O)(=O)N/N=C/C(C)C)cc1	> 100 µM (inactive)	> 100 µM (inactive)	> 100 µM (inactive)	> 100 µM (inactive)	> 100 µM (inactive)	> 100 µM (inactive)		> 100 µM (inactive)	> 100 µM (inactive)
C=CC(=O)c1ccc2c(c1)OCCOCCOCCOCCOCCO2	15.7 µM (inactive)	16.9 µM (inactive)	17.8 µM (inactive)	30.2 µM (inactive)	19.3 µM (inactive)	16.4 µM (inactive)	15.3 µM (inactive)	16.1 µM (inactive)	
CCOC(=O)Cn1c(=O)[nH]c(=O)c2[nH]cnc21	> 100 µM (inactive)	> 100 µM (inactive)	> 100 µM (inactive)	> 100 µM (inactive)	> 100 µM (inactive)	> 100 µM (inactive)		> 100 µM (inactive)	> 100 µM (inactive)
CCN(CC)Cc1c(/C=C\c2cc(OC)c(OC)c(OC)c2)ccc(OC)c1O	2.2 µM (inactive)	5.53 µM (inactive)	3.22 µM (inactive)	3.52 µM (inactive)	2.23 µM (inactive)	4.09 µM (inactive)	4.08 µM (inactive)	> 100 µM (inactive)	
COc1cc2c(c(OC)c1OC)CCNC2C1=C(O)COC1=O (centres undefined)	> 100 µM (inactive)	> 100 µM (inactive)	> 100 µM (inactive)	> 100 µM (inactive)	> 100 µM (inactive)	> 100 µM (inactive)		95.5 µM (inactive)	> 100 µM (inactive)
COc1cc2c(oc(=O)c3c4oc([Si](C)(C)C)cc4cc(OC)c23)c2cccc(OCc3ccccc3)c12	25.3 µM (inactive)	27.2 µM (inactive)	48.2 µM (inactive)	> 66.1 µM (inactive)	50.6 µM (inactive)	55 µM (inactive)	8.32 µM (inactive)	28 µM (inactive)	
C/C(=C\CC[C@]1(C)OC(C)(C)OC1CC/C(C)=C/CO[Si](c1ccccc1)(c1ccccc1)C(C)(C)C)CC/C=C/CO[Si](C)(C)C(C)(C)C (some centres undefined)	> 100 µM (inactive)		> 100 µM (inactive)	> 100 µM (inactive)	> 100 µM (inactive)	> 100 µM (inactive)			
COC(=O)CCC(=O)N1Cc2cc(C)ccc2N(C(=O)CCC(=O)OC)Cc2cc(C)ccc21	> 100 µM (inactive)		> 100 µM (inactive)			> 100 µM (inactive)	> 100 µM (inactive)	> 100 µM (inactive)	
CS(=O)(=O)OCCN1CCN(C(=O)c2cccc3c(Nc4ccc(S(N)(=O)=O)cc4)c4ccccc4nc23)CC1	> 100 µM (inactive)	> 100 µM (inactive)	> 81.8 µM (inactive)	> 100 µM (inactive)	> 42.2 µM (inactive)	> 46.8 µM (inactive)	> 100 µM (inactive)	> 100 µM (inactive)	> 100 µM (inactive)
